# Test results published in patent US11850252B2, “Use of nor-ursodeoxycholic acid for reducing liver fat” (Dr. Falk Pharma GmbH, priority 2017, dated 2023).
# Several values for one entry are separate records, joined by “and”; a condition that tells them apart may be missing. Equal values may be shown once. Read-outs that look alike come from different tables or passages of the source.
# Legend:
# [1] = test system: acyl coenzyme A synthetase; conditions: in contrast to UDCA; cited from earlier work
# [2] = test system: Patients with a clinical diagnosis of non-alcoholic hepatic steatosis; assay: Liver enzymes (serum ALT, AST, GGT, AP, bilirubin), phase II clinical trial; assay type: in vivo, human; conditions: for change of AST: V2 to V6-LOCF; for ALT change, Mean ± SD / ALT/AST ratio change, Mean ± SD / AST change, Mean ± SD / Serum bilirubin change, Mean ± SD: V6 (LOCF)-V2; for patients fulfilling outcome criterion ALT≤0.8 ULN: patients with ALT>0.8 at baseline; for patients fulfilling outcome criterion ALT<ULN: patients with ALT>1.0 at baseline; for patients fulfilling outcome criterion ALT<1.5 ULN: patients with ALT>1.5 at baseline;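 for Serum bilirubin, Mean ± SD: unit mg/dL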
# Experimental: A double-blinded, randomized, placebo-controlled phase II clinical trial was conducted as described in the following.
# Patients with a clinical diagnosis of non-alcoholic hepatic steatosis were randomized to a 12-week treatment period and a 4-week follow-up. Patients were divided into three groups. The first groups received 1,500 mg Nor-UDCA per day (6 capsules with 250 mg Nor-UDCA in each capsule). The second group received 500 mg Nor-UDCA per day (2 capsules with 250 mg Nor-UDCA in each capsule and 4 capsules with 250 mg placebo in each capsule). The third group received 6 capsules with 250 mg placebo in each capsule.
# The effects of Nor-UDCA on liver enzyme values have been assessed with respect to the courses of ALT, AST, GGT, AP and serum bilirubin. In addition, treatment effects with respect to pre-defined outcome criteria based on the upper limits of normal (ULN) of ALT, AST and GGT were examined.
# The serum levels of ALT, AST, GGT, AP and serum bilirubin were determined by established standard laboratory methods.
# [3] = test system: mouse models of obesity and steatosis; conditions: cited from earlier work
# [4] = test system: experimental alcoholic steatohepatitis; conditions: preventive administration; compared to UDCA; Belonovskaya et al. (2013); cited from earlier work
# [5] = N500 (500 mg/day), V2 baseline week 0
# [6] = N1500 (1,500 mg/day), V2 baseline week 0
# [7] = N1500 (1,500 mg/day), V3 week 2
# [8] = N1500 (1,500 mg/day), V4 week 4
# [9] = N1500 (1,500 mg/day), V5 week 8
# [10] = N1500 (1,500 mg/day), V6 (LOCF)
# [11] = N1500 (1,500 mg/day), V6 week 12
structure (smiles),measurement,setting,value
"CC(CC(=O)O)[C@H]1CCC2[C@H]3C(CC[C@@]21C)[C@@]1(C)CCC(O)C[C@H]1C[C@@H]3O (stereo partly shown) [Nor-UDCA, 24-nor-ursodeoxycholic acid]",N-acyl amidation with taurine or glycine,[1],only minimal
same,substrate for acyl coenzyme A synthetase,[1],poor substrate
same,mean absolute change of ALT from V2 to V6-LOCF,[2]; N500 (500 mg/day),−7.0 U/I
same,patients fulfilling criterion AST>0.33 ULN to ≤0.67 ULN,[2]; N500 (500 mg/day),26.4%
same,patients fulfilling outcome criterion GGT>0.33 ULN to ≤0.67,[2]; N500 (500 mg/day),13.0%
same,patients with combined criterion of ALT and/or AST decrease 15%,[2]; N500 (500 mg/day),49.3%
same,proportion of patients fulfilling criterion AST<1.5 ULN,[2]; N500 (500 mg/day),50.0%
same,proportion of patients fulfilling criterion AST<ULN,[2]; N500 (500 mg/day),27.3%
same,"proportion of patients, criterion GGT ULN",[2]; N500 (500 mg/day),12.2%
same,GGT,"[2]; N500 (500 mg/day), V2",144.7 U/I
same,"ALT, Mean ± SD",[2]; [5],80.3 ± 33.3 U/l
same,"ALT/AST, Mean ± SD",[2]; [5],1.71 ± 0.50
same,"AP, Mean ± SD",[2]; [5],83.9 ± 27.6 U/l
same,"AST, Mean ± SD",[2]; [5],49.8 ± 27.4 U/l
same,"GGT, Mean ± SD",[2]; [5],144.7 ± 160.0 U/l
same,"Serum bilirubin, Mean ± SD",[2]; [5],0.64 ± 0.40 mg/dL
same,change of AST,[2]; N500 (500 mg/day),−3.8 U/I
same,"ALT, Mean ± SD","[2]; N500 (500 mg/day), V3 week 2",79.4 ± 40.6 U/l
same,"ALT/AST, Mean ± SD","[2]; N500 (500 mg/day), V3 week 2",1.70 ± 0.51
same,"AP, Mean ± SD","[2]; N500 (500 mg/day), V3 week 2",88.3 ± 34.3 U/l
same,"AST, Mean ± SD","[2]; N500 (500 mg/day), V3 week 2",47.9 ± 22.4 U/l
same,"GGT, Mean ± SD","[2]; N500 (500 mg/day), V3 week 2",151.9 ± 166.4 U/l
same,"Serum bilirubin, Mean ± SD","[2]; N500 (500 mg/day), V3 week 2",0.63 ± 0.38 mg/dL
same,"ALT, Mean ± SD","[2]; N500 (500 mg/day), V4 week 4",75.2 ± 34.6 U/l
same,"ALT/AST, Mean ± SD","[2]; N500 (500 mg/day), V4 week 4",1.67 ± 0.48
same,"AP, Mean ± SD","[2]; N500 (500 mg/day), V4 week 4",86.5 ± 34.3 U/l
same,"AST, Mean ± SD","[2]; N500 (500 mg/day), V4 week 4",46.0 ± 18.8 U/l
same,"GGT, Mean ± SD","[2]; N500 (500 mg/day), V4 week 4",138.9 ± 141.6 U/l
same,"Serum bilirubin, Mean ± SD","[2]; N500 (500 mg/day), V4 week 4",0.61 ± 0.38 mg/dL
same,"ALT, Mean ± SD","[2]; N500 (500 mg/day), V5 week 8",75.6 ± 36.8 U/l
same,"ALT/AST, Mean ± SD","[2]; N500 (500 mg/day), V5 week 8",1.66 ± 0.47
same,"AP, Mean ± SD","[2]; N500 (500 mg/day), V5 week 8",86.1 ± 30.0 U/l
same,"AST, Mean ± SD","[2]; N500 (500 mg/day), V5 week 8",46.9 ± 24.4 U/l
same,"GGT, Mean ± SD","[2]; N500 (500 mg/day), V5 week 8",133.6 ± 124.2 U/l
same,"Serum bilirubin, Mean ± SD","[2]; N500 (500 mg/day), V5 week 8",0.64 ± 0.41 mg/dL
same,"ALT, Mean ± SD","[2]; N500 (500 mg/day), V6 (LOCF)",72.8 ± 33.2 U/l
same,"ALT/AST, Mean ± SD","[2]; N500 (500 mg/day), V6 (LOCF)",1.67 ± 0.48
same,"AP, Mean ± SD","[2]; N500 (500 mg/day), V6 (LOCF)",86.9 ± 32.2 U/l
same,"AST, Mean ± SD","[2]; N500 (500 mg/day), V6 (LOCF)",45.6 ± 24.7 U/l
same,"GGT, Mean ± SD","[2]; N500 (500 mg/day), V6 (LOCF)",137.6 ± 144.8 U/l
same,"Serum bilirubin, Mean ± SD","[2]; N500 (500 mg/day), V6 (LOCF)",0.62 ± 0.38 mg/dL
same,"ALT change, Mean ± SD",[2]; N500 (500 mg/day),−7.0 ± 27.4 U/l
same,"ALT/AST ratio change, Mean ± SD",[2]; N500 (500 mg/day),−0.05 and −0.05 ± 0.37
same,"AST change, Mean ± SD",[2]; N500 (500 mg/day),−3.8 ± 14.3 U/l
same,"Serum bilirubin change, Mean ± SD",[2]; N500 (500 mg/day),-0.01 ± 0.22 mg/dL
same,GGT,"[2]; N500 (500 mg/day), V6-LOCF",137.6 U/I
same,"ALT, Mean ± SD","[2]; N500 (500 mg/day), V6 week 12",70.8 ± 31.6 U/l
same,"ALT/AST, Mean ± SD","[2]; N500 (500 mg/day), V6 week 12",1.66 ± 0.45
same,"AP, Mean ± SD","[2]; N500 (500 mg/day), V6 week 12",87.4 ± 32.7 U/l
same,"AST, Mean ± SD","[2]; N500 (500 mg/day), V6 week 12",43.9 ± 20.4 U/l
same,"GGT, Mean ± SD","[2]; N500 (500 mg/day), V6 week 12",139.2 ± 147.6 U/l
same,"Serum bilirubin, Mean ± SD","[2]; N500 (500 mg/day), V6 week 12",0.62 ± 0.36 mg/dL
same,patients fulfilling outcome criterion ALT≤0.8 ULN,[2]; N500 (500 mg/day),14.8%
same,patients fulfilling outcome criterion ALT<ULN,[2]; N500 (500 mg/day),16.9%
same,patients fulfilling outcome criterion ALT<1.5 ULN,[2]; N500 (500 mg/day),37.9%
same,mean absolute change of ALT from V2 to V6-LOCF,"[2]; N1500 (1,500 mg/day)",−17.2 U/I
same,patients fulfilling criterion AST>0.33 ULN to ≤0.67 ULN,"[2]; N1500 (1,500 mg/day)",32.7%
same,patients fulfilling outcome criterion GGT>0.33 ULN to ≤0.67,"[2]; N1500 (1,500 mg/day)",21.6%
same,patients with combined criterion of ALT and/or AST decrease 15%,"[2]; N1500 (1,500 mg/day)",71.6%
same,proportion of patients fulfilling criterion AST<1.5 ULN,"[2]; N1500 (1,500 mg/day)",75.0%
same,proportion of patients fulfilling criterion AST<ULN,"[2]; N1500 (1,500 mg/day)",54.5%
same,"proportion of patients, criterion GGT ULN","[2]; N1500 (1,500 mg/day)",31.0%
same,GGT,"[2]; N1500 (1,500 mg/day), V2",178.8 U/I
same,"ALT, Mean ± SD",[2]; [6],78.6 ± 34.2 U/l
same,"ALT/AST, Mean ± SD",[2]; [6],1.68 ± 0.53
same,"AP, Mean ± SD",[2]; [6],92.0 ± 36.6 U/l
same,"AST, Mean ± SD",[2]; [6],49.3 ± 25.1 U/l
same,"GGT, Mean ± SD",[2]; [6],178.8 ± 205.6 U/l
same,"Serum bilirubin, Mean ± SD",[2]; [6],0.61 ± 0.32 mg/dL
same,change of AST,"[2]; N1500 (1,500 mg/day)",−8.7 U/I
same,"ALT, Mean ± SD",[2]; [7],72.8 ± 33.1 U/l
same,"ALT/AST, Mean ± SD",[2]; [7],1.66 ± 0.41
same,"AP, Mean ± SD",[2]; [7],95.4 ± 40.1 U/l
same,"AST, Mean ± SD",[2]; [7],43.7 ± 15.7 U/l
same,"GGT, Mean ± SD",[2]; [7],170.1 ± 217.9 U/l
same,"Serum bilirubin, Mean ± SD",[2]; [7],0.52 ± 0.26 mg/dL
same,"ALT, Mean ± SD",[2]; [8],62.6 ± 24.7 U/l
same,"ALT/AST, Mean ± SD",[2]; [8],1.53 ± 0.41
same,"AP, Mean ± SD",[2]; [8],90.9 ± 32.0 U/l
same,"AST, Mean ± SD",[2]; [8],42.6 ± 19.9 U/l
same,"GGT, Mean ± SD",[2]; [8],128.5 ± 126.1 U/l
same,"Serum bilirubin, Mean ± SD",[2]; [8],0.53 ± 0.26 mg/dL
same,"ALT, Mean ± SD",[2]; [9],62.0 ± 27.9 U/l
same,"ALT/AST, Mean ± SD",[2]; [9],1.54 ± 0.34
same,"AP, Mean ± SD",[2]; [9],91.1 ± 33.3 U/l
same,"AST, Mean ± SD",[2]; [9],40.5 ± 16.3 U/l
same,"GGT, Mean ± SD",[2]; [9],111.5 ± 112.7 U/l
same,"Serum bilirubin, Mean ± SD",[2]; [9],0.54 ± 0.28 mg/dL
same,"ALT, Mean ± SD",[2]; [10],61.8 ± 28.3 U/l
same,"ALT/AST, Mean ± SD",[2]; [10],1.54 ± 0.34
same,"AP, Mean ± SD",[2]; [10],91.8 ± 32.1 U/l
same,"AST, Mean ± SD",[2]; [10],40.8 ± 19.1 U/l
same,"GGT, Mean ± SD",[2]; [10],111.7 ± 116.3 U/l
same,"Serum bilirubin, Mean ± SD",[2]; [10],0.57 ± 0.31 mg/dL
same,"ALT change, Mean ± SD","[2]; N1500 (1,500 mg/day)",−17.2 ± 23.3 U/l
same,"ALT/AST ratio change, Mean ± SD","[2]; N1500 (1,500 mg/day)",−0.14 and −0.14 ± 0.42
same,"AST change, Mean ± SD","[2]; N1500 (1,500 mg/day)",−8.7 ± 13.6 U/l
same,"Serum bilirubin change, Mean ± SD","[2]; N1500 (1,500 mg/day)",-0.03 ± 0.20 mg/dL
same,GGT,"[2]; N1500 (1,500 mg/day), V6-LOCF",111.7 U/I
same,"ALT, Mean ± SD",[2]; [11],62.8 ± 29.1 U/l
same,"ALT/AST, Mean ± SD",[2]; [11],1.55 ± 0.34
same,"AP, Mean ± SD",[2]; [11],92.9 ± 31.3 U/l
same,"AST, Mean ± SD",[2]; [11],41.3 ± 19.8 U/l
same,"GGT, Mean ± SD",[2]; [11],109.6 ± 115.8 U/l
same,"Serum bilirubin, Mean ± SD",[2]; [11],0.56 ± 0.32 mg/dL
same,patients fulfilling outcome criterion ALT≤0.8 ULN,"[2]; N1500 (1,500 mg/day)",17.5%
same,patients fulfilling outcome criterion ALT<ULN,"[2]; N1500 (1,500 mg/day)",35.7%
same,patients fulfilling outcome criterion ALT<1.5 ULN,"[2]; N1500 (1,500 mg/day)",53.1%
same,"differences in the course of AP and serum bilirubin values between N1500, N500 and Placebo",[2]; N1500 and N500 versus Placebo,no relevant differences
same,reduction in ALT,"[3]; mouse model of obesity and steatosis, Steinacher et al. (2015)",significant reduction
same,reduction in ALT,"[3]; mouse models of obesity and steatosis, Steinacher et al. (2017)",considerable reduction
same,preventing the accumulation of triglycerides in the liver,[4],most effective
